Experimental data published in US20170252433A1, “PSMA-RELATED THERAPIES” (Memorial Sloan Kettering Cancer Center, priority 2014, published 2017).

How the values were obtained:
nitric oxide synthase = assay: Nitric oxide synthase activity (total nitrate levels); assay type: cell-based, human; details: 5 μM, 48 h
Method: Gene expression array was performed after TRIzol-based RNA extraction on an U133A 2.0 gene array (Affymetrix, Santa Clara, Calif.). The output of the androgen receptor (AR) pathway was assessed by measuring the levels of prostate specific antigen (PSA). LNCaP cells that have a functional AR pathway were obtained from ATCC (Manassas, Va.) and grown to confluence. Then they were treated for 48 h with 2-PMPA (5 μM) for 48 h, followed by screening of the culture medium for secreted PSA with the DELFIA PSA assay (Perkin Elmer, Waltham, Mass.). The levels of nitric oxide attributed to nitric oxide synthase's activity and the concentration of total secreted prostaglandins were quantified with the corresponding kits purchased from Cayman Chemicals (Ann Arbor, Mich.). Alterations in energy production due to signaling changes were determined through quantification of the intracellular NAD+ and ATP lelels, using the NAD assay from Cayman Chemicals (Ann Arbor, Mich.) and the StayBrite ATP kit from Biovision (Milpitas, Calif.).
Furthermore, it was examined whether PSMA inhibition affects the activity of nitric oxide synthase and the levels of prostaglandins, since both Akt and Ca+2 regulate these processes. […]

LNCaP and PC3-PSMA cells = assay: Total secreted prostaglandins; assay type: cell-based, human; details: 5 μM, 48 h, FIG. 5c-d
From the text: LNCaP cells that have a functional AR pathway were obtained from ATCC (Manassas, Va.) and grown to confluence. […] The levels of nitric oxide attributed to nitric oxide synthase's activity and the concentration of total secreted prostaglandins were quantified with the corresponding kits purchased from Cayman Chemicals (Ann Arbor, Mich.).
Furthermore, it was examined whether PSMA inhibition affects the activity of nitric oxide synthase and the levels of prostaglandins, since both Akt and Ca+2 regulate these processes. The activity of nitric oxide synthase was assessed by quantifying the sample's total nitrate levels with a kit from Cayman Chemicals, whereas the levels of total prostaglandins secreted in the cell's medium were measured with the total prostaglandin kit from Cayman Chemicals. Inhibition of PSMA was performed with a PSMA inhibitor (5 μM) at 48 h at 37° C., 5% CO2.

LNCaP-wt xenografts = assay: Photoacoustic imaging of tumor vascularization and oxygenation; assay type: in vivo, male athymic, nude mice; details: 0.4 mM, 100 μL retro-orbital injection daily
Method: Male, athymic, nude mice (Harlan Laboratories, Indianapolis, Ind.) were implanted with LNCaP xenografts (3 million cells in 100 μL Matrigel). Immediately post xengraft implantation, the mice were treated daily iv with 2-PMPA (0.4 mM, 100 μL retro-orbital injection). Tumor vascularization and oxygenation was assessed 15 days after treatment commencements, using the Vevo LAZR small-animal photoacoustic imaging platform (Visualsonics, Toronto, ON, Canada).
The tumors used in the study had roughly the same size. […] (FIG. 6 a-b). […] (FIG. 6c)

[1] = tested on: LNCaP, LNCaP-KD, PC3-PSMA and PC3-wt cells; assay: In vitro chemotherapy, cell viability (Alamar blue)
Method: Cells were seeded in a 96-well format (2,500 cells per well), and grown for 48 h. They were then treated with the following drugs at a final concentration of 200 nM: Doxorubicin, Taxol, AZD6244, BEZ235, Lapatinib, and Velcade (all purchased from Selleck Chemicals, Houston, Tex.). For combination therapy, cells were treated with 2-PMPA (5 μM final concentration). After overnight incubation in the presence of the drugs, cell viability was determined with the Alamar blue method according to the supplier's guidelines (Life Technologies, Carlsbad, Calif.)
Given that PSMA affects the phosphorylation status of multiple targets, it was investigated whether inhibition of PSMA can counteract resistance to various chemotherapeutics used in the clinic or under clinical trials. LNCaP and PCS3-PSMA cells were seeded at a density of 2,500 cells per well in a 96-well format, and after 48 hours growth the cells were treated with the drugs (Doxorubicin (Adriamycin; DNA intercalator), Taxol (Paclitaxel; microtubule stabilizer), AZD6244 (Selumetinib; MEK1 & ERK1/2 inhibitor), BEZ235 (Dactolisib; PI3K & mTOR inhibitor), Lapatinib (EGFR and ErbB2 inhibitor), or Velcade (Bortezomib; 20S proteasome inhibitor), 200 nM final concentration in 1×PBS) or with the drugs (200 nM final concentration) and 2-PMPA (5 μM final concentration). After overnight incubation, cell viability was assessed fluorimetrically with the Alamar blue method (Invitrogen), according to the supplier's protocol.

LNCaP xenografts = assay: In vivo chemotherapy, LNCaP xenografts; set-up: species or system male athymic, nude mice; details: 0.4 mM, 100 μL retro-orbital injection daily from implantation
Method: Male, athymic, nude mice (Harlan Laboratories, Indianapolis, Ind.) were implanted with LNCaP xenografts (3 million cells in 100 μL Matrigel) on each flank. Immediately post xengraft implantation, the mice were treated daily iv with 2-PMPA (0.4 mM, 100 μL retro-orbital injection). Tumor volume was assessed by measuring the tumor with microcalipers. Combination therapy was performed with male athymic, nude mice with LNCaP xenografts, which were treated daily post tumor detection. Chemotherapy was administered by iv (100 μL retro-orbital injection) with animals receiving either enzalutamide (0.15 mM), 2-PMPA (3 mM) or both compounds (0.15 mM enzalutamide and 3 mM 2-PMPA). Male athymic, nude mice with PC3-PSMA xenografts (3 million cells in 100 μL Matrigel) were treated with either vehicle (DMSO) or a combination of AZD8055 and XL184 (AZD8055 0.4 mM and XL184 8 μM 100 μL retro-orbital injection).
Tumor growth was examined using daily treatment of male athymic, nude mice with LNCaP xenografts on their flanks Each animal's flanks were injected with 3,000,000 cells in 100 μL matrigel, and the animals were immediately treated with 2-PMPA (0.4 mM, 100 μL retro-orbital injection). Tumor volume was assessed by measuring the tumor with microcalipers. […] In a different study, male athymic, nude mice with LNCaP xenografts were treated daily post tumor detection, with either enzalutamide (0.15 mM, 100 μL retro-orbital injection), 2-PMPA (3 mM, 100 μL retro-orbital injection) or both compounds (0.15 mM enzalutamide and 3 mM 2-PMPA, 100 μL retro-orbital injection). […] (FIG. 9c-d).

## O=C(O)CCC(CP(=O)(O)O)C(=O)O (stereo not drawn) [2-PMPA]
Nitric oxide synthase; PC3-wt cells that do not express PSMA
  nitrate concentration: did not affect nitrate concentration
Nitric oxide synthase; PSMA-expressing cells, FIG. 5c-d
  nitric oxide synthase activity (nitrate levels): decreased nitric oxide synthase activity
LNCaP and PC3-PSMA cells
  total levels of secreted prostaglandins: decreased
LNCaP-wt xenografts; FIG. 6a-b
  tumor total hemoglobin levels: lower total hemoglobin levels
LNCaP-wt xenografts; FIG. 6c
  tumor consumption of oxygen: lower consumption of oxygen
LNCaP-wt xenografts; versus saline
  tumor oxygenation: lower tumor oxygenation
LNCaP-wt xenografts; versus saline, FIG. 6a-b
  tumor vascularization: lower tumor vascularization
[1]; PSMA-expressing cells, drugs 200 nM plus 2-PMPA 5 μM, overnight, FIG. 7a-d
  effect of 2-PMPA on toxicity of chemotherapeutics (cell viability): enhanced the toxicity of all chemotherapeutics
[1]; for the study's time-course
  cytotoxic effect of the inhibitor alone: no cytotoxic effect
LNCaP xenografts
  tumor size and growth: smaller tumors that grew slowly
LNCaP xenografts; FIG. 9a
  tumor initiation: did not affect tumor initiation
LNCaP xenografts; FIG. 9b
  animal survival: extended the animals survival
